These results are taken from US20240368406A1, “STABLE LIQUID PHANTOM FOR NEAR-INFRARED FLUORESCENCE VERIFICATION” (SURGVISION GMBH, priority 2021, published 2024).

The conditions of series [1]: cited from earlier work.
Series [2] in a line: Stability of the phantom solutions at +2-8° C. (residual absorbance, UV/VIS). Type of series: physicochemical. To be noted: +2-8° C. The method, then: Several stability studies were performed to evaluate the effect of different buffers, additives such as excipients or preservatives, and storage conditions on the dye formulation. In particular the stability of the formulations after storage at +2-8° C. in a refrigerator was firstly investigated.
(§1) Stability was measured as reduction in the absorbance at the maximum wavelength of the dye acquired using a UV/VIS spectrophotometer, denoting reduction of the dye monomer content in solution. All the results were then reported as residual percentage vs the baseline (T=0), wherein at time=0 the percentage is 100%. A decrease in absorbance is associated with the reduction of the concentration of the dye in the formulation buffer, indicating low stability and degradation of the main chromophore species.
In the Tables below the residual absorbance of different dyes, i.e. […] and S0456, in some representative organic buffering solutions is reported after storage of the formulations at +2-8° C.

Series [3] in a line: Stability of the phantom solutions at +2-8° C. in the presence of additives (residual absorbance). The class given is physicochemical. The procedure:
as §1
The effect of the presence of an additive on the stability of the formulations of the invention has been also investigated.
The preparation of the above buffers is described below:
50 mM HEPES (pH 7.4)+0.04% Tween 20: to prepare 100 mL of buffering solution, 1.19 g of HEPES were dissolved in 80 mL of water; 40 μL of Tween 20 were added and the pH was adjusted to 7.4 with 0.1 M HCl. The buffering solution was then brought to 100 mL volume with water and filtered on 0.22 μm membrane in sterile conditions.
50 mM HEPES (PH 7.4)+0.02% Sodium Azide: to prepare 100 mL of buffering solution, 1.19 g of HEPES and 20 mg of Sodium Azide were dissolved in 80 mL of water and the pH was adjusted to 7.4 with 0.1 M HCl. The buffering solution was then brought to 100 mL volume with water and filtered on 0.22 μm membrane in sterile conditions.
10 mM HEPES (PH 7.0)+10% EtOH: to prepare 100 mL of buffering solution, 0.24 g of HEPES were dissolved in 80 mL of water and the pH was adjusted to 7.0 with 0.1 M HCl.
Then, 10 mL of 100% Ethanol were added. The buffering solution was then brought to 100 mL volume with water and filtered on 0.22 μm membrane in sterile conditions.
Analogous solutions were prepared with the same procedure for MOPS, BES and TRICINE buffers.

Series [4] is described as follows: Stability of the phantom solutions at 25° C. (residual absorbance). The class given is physicochemical. To be noted: storage at 25° C. in dark. The method, then: as §1
The stability of the formulations under stressed conditions was also investigated.

Series [5] in a line: Stability of the phantom solutions at +2-8° C. during long-term storage (residual absorbance). To be noted: 3 μM dye in HEPES 50 mM, pH 7.4, +2-8° C. protected from light. The class given is physicochemical. The procedure: Stability was measured as reduction in the absorbance at the maximum wavelength of the dye acquired using a UV/VIS spectrophotometer, denoting reduction of the dye monomer content in solution. […] A decrease in absorbance is associated with the reduction of the concentration of the dye in the formulation buffer, indicating low stability and degradation of the main chromophore species. The stability of the formulations under long-term storage conditions was also investigated. In particular, samples of 3 μM IRDye […] and 3 μM IRDye 800BK dissolved in HEPES buffer were stored refrigerated at +2-8° C. protected from light exposure for at least 6 months. For the long-term stability study at 2-8° C., samples of.

As for `O=S(=O)(O)CCN(CCO)CCO` [BES, 2-[bis(2-hydroxyethyl)amino]ethanesulfonic acid], the “pKa (20° C.)” value in series [1] is reported as 7.2.

As for `CC1(C)C(=CC=C2CCCC(C=CC3=[N+](CCCCCC(=O)[O-])c4ccc(S(=O)(=O)[O-])cc4C3(C)C)=C2Oc2ccc(S(=O)(=O)[O-])cc2)N(CCCCS(=O)(=O)[O-])c2ccc(S(=O)(=O)[O-])cc21.[Na+].[Na+].[Na+].[Na+]` [IRDye 800CW], the Residual absorbance percentage in series [2] (3 μM dye in HEPES (50 mM, pH 7.4), 1 week (Table II)) turned out to be 100.9%; in series [2] (3 μM dye in HEPES (50 mM, pH 7.4), 2 weeks (Table II)) it was 100.3%; in series [2] (3 μM dye in HEPES (50 mM, pH 7.4), 4 weeks (Table II)), 99.3%; in series [2] (3 μM dye in MES (50 mM, pH 6.2), 1 week), 99.4%; in series [2] (3 μM dye in MES (50 mM, pH 6.2), 2 weeks), 96.7%; in series [2] (3 μM dye in MES (50 mM, pH 6.2), 4 weeks) it was 93.2%. The Residual absorbance percentage in series [2] (3 μM dye in MOPS (50 mM, pH 7.0), 1 week (Table II)) is reported as 99.3%; in series [2] (3 μM dye in MOPS (50 mM, pH 7.0), 2 weeks (Table II)), 98.0%; in series [2] (3 μM dye in MOPS (50 mM, pH 7.0), 4 weeks (Table II)), 95.2%; in series [2] (3 μM dye in PBS (50 mM, pH 7.4), 1 week), 100%; in series [2] (3 μM dye in PBS (50 mM, pH 7.4), 2 weeks), 92.9%; in series [2] (3 μM dye in PBS (50 mM, pH 7.4), 4 weeks) it was 79.1%. Also, the Residual absorbance percentage entry is “lower than 80%” in series [2] (3 μM dye in PBS (50 mM, pH 7.4), 4 weeks, listed as IRDye 8000W); 100.5% in series [2] (3 μM dye in TRICINE (50 mM, pH 8.0), 1 week (Table II)); 99.9% in series [2] (3 μM dye in TRICINE (50 mM, pH 8.0), 2 weeks (Table II)); 99.3% in series [2] (3 μM dye in TRICINE (50 mM, pH 8.0), 4 weeks (Table II)); 96.9% in series [3] (3 μM dye in HEPES (50 mM, pH 7.4) +0.02% sodium azide, +2-8° C., 1 week); 92.4% in series [3] (3 μM dye in HEPES (50 mM, pH 7.4) +0.02% sodium azide, +2-8° C., 2 weeks). Moreover, the Residual absorbance percentage is 89.1% in series [3] (3 μM dye in HEPES (50 mM, pH 7.4) +0.02% sodium azide, +2-8° C., 4 weeks); 100.5% in series [3] (3 μM dye in HEPES (50 mM, pH 7.4) +0.04% Tween 20, +2-8° C., 1 week); 95.8% in series [3] (3 μM dye in HEPES (50 mM, pH 7.4) +0.04% Tween 20, +2-8° C., 2 weeks); 92.4% in series [3] (3 μM dye in HEPES (50 mM, pH 7.4) +0.04% Tween 20, +2-8° C., 4 weeks); 97.7% in series [3] (3 μM dye in TRICINE (50 mM, pH 8.0) +0.02% sodium azide, +2-8° C., 1 week); 93.0% in series [3] (3 μM dye in TRICINE (50 mM, pH 8.0) +0.02% sodium azide, +2-8° C., 2 weeks). The Residual absorbance percentage in series [3] (3 μM dye in TRICINE (50 mM, pH 8.0) +0.02% sodium azide, +2-8° C., 4 weeks) is 89.8%; in series [3] (3 μM dye in TRICINE (50 mM, pH 8.0) +0.04% Tween 20, +2-8° C., 1 week) it was 97.7%; in series [3] (3 μM dye in TRICINE (50 mM, pH 8.0) +0.04% Tween 20, +2-8° C., 2 weeks), 93.0%; in series [3] (3 μM dye in TRICINE (50 mM, pH 8.0) +0.04% Tween 20, +2-8° C., 4 weeks), 89.8%; in series [4] (3 μM dye in HEPES (50 mM), 1 week) it was 100.9%; in series [4] (3 μM dye in HEPES (50 mM), 2 weeks), 98.4%. The Residual absorbance percentage in series [4] (3 μM dye in MOPS (50 mM), 1 week) turned out to be 99.7%; in series [4] (3 μM dye in MOPS (50 mM), 2 weeks) it was 97.3%; in series [5] (1 month), 99.3%; in series [5] (3 months), 97.7%; in series [5] (6 months), 96.2%.

Turning to `CC1(C)C(/C=C/C2=C(Cl)C(=C/C=C3/N(CCCCS(=O)(=O)[O-])c4ccc(S(=O)(=O)[O-])cc4C3(C)C)/CCC2)=[N+](CCCCS(=O)(=O)[O-])c2ccc(S(=O)(=O)[O-])cc21.[Na+].[Na+].[Na+]` [S0456], the Residual absorbance percentage in series [2] (3 μM dye in HEPES (50 mM, pH 7.4), 1 week (Table III)) is 99.0%; in series [2] (3 μM dye in HEPES (50 mM, pH 7.4), 2 weeks (Table III)), 98.5%; in series [2] (3 μM dye in HEPES (50 mM, pH 7.4), 4 weeks (Table III)) it was 96.9%; in series [2] (3 μM dye in MOPS (50 mM, pH 7.0), 1 week (Table III)), 98.8%; in series [2] (3 μM dye in MOPS (50 mM, pH 7.0), 2 weeks (Table III)) it was 98.5%; in series [2] (3 μM dye in MOPS (50 mM, pH 7.0), 4 weeks (Table III)) it was 96.1%. Also, the Residual absorbance percentage in series [2] (3 μM dye in TRICINE (50 mM, pH 8.0), 1 week (Table III)) came out at 99.7%; in series [2] (3 μM dye in TRICINE (50 mM, pH 8.0), 2 weeks (Table III)), 98.7%; in series [2] (3 μM dye in TRICINE (50 mM, pH 8.0), 4 weeks (Table III)) it was 97.9%.
